In patent publication US8178506B2, “Oligomeric compounds and compositions for use in modulation of small non-coding RNAs” (Regulus Therapeutics Inc., priority 2003, dated 2012):
In the oligonucleotide strings, read from the 5' end, every base follows the letter of its sugar. An asterisk marks phosphorothioate; unmarked linkages are phosphodiester. Other units and linkages are bracketed, terminal groups are in braces. A string of capitals states the bases alone. e = 2'-O-(2-methoxyethyl) (MOE); [5mC] = 5-methylcytosine

How the values were obtained:
IGFBP-1 = IGFBP-1 mRNA expression in HepG2 cells; type: cell-based, human; details: for IGFBP-1 (% UTC): HepG2, 100 nM oligomeric compound; for IGFBP1 mRNA: HepG2 cells, four hours, UTC = 100
Experimental: (§1) Approximately 28 hours after transfection, the cells are subjected to serum starvation for a period of 12 to 16 hours, using serum-free growth medium. Following serum starvation, cells are treated with 1 nM insulin (insulin-treated) or are left untreated (basal conditions) for approximately four hours. At the same time, untreated control cells in both plates are treated with 100 nM insulin to determine the maximal insulin response. Following insulin treatment (forty-eight hours after transfection), total RNA is harvested from all samples, and the amount of total RNA from each sample is determined using a Ribogreen assay (Invitrogen Corporation, Carlsbad, Calif.). Real-time PCR is performed on the total RNA samples using primer/probe sets for three insulin responsive genes: insulin-like growth factor binding protein-1 (IGFBP-1), cytosolic PEPCK (PEPCK-C), and follistatin. Gene expression levels obtained by real-time PCR are normalized for total RNA content in the samples.
(§2) Oligomeric compounds of the present invention were tested for their effects on insulin signaling in HepG2 cells. HepG2 cells were plated at 7500 cells/well in collagen coated 96-well plates. The following day, cells were transfected with oligomeric compounds targeting miRNAs using 100 nM oligomeric compound in LIPOFECTIN™ (Invitrogen Corporation, Carlsbad, Calif.) in two 96-well plates. The oligomeric compounds were tested in triplicate on each 96-well plate, except for positive and negative controls, which were measured up to six times per plate. At the end of transfection, the transfection medium was replaced by regular growth medium. Twenty-eight hours post-transfection, the cells were subjected to overnight (sixteen to eighteen hours) serum starvation using serum free growth medium. Forty-four hours post-transfection, the cells in the transfected wells were treated with either no insulin (“basal” Experiment 1, for identification of insulin-mimetic compounds) or with 1 nM insulin (“insulin treated” Experiment 2, for identification of insulin sensitizers) for four hours. At the same time, in both plates, cells in some of the un-transfected control wells are treated with 100 nM insulin to determine maximal insulin response. At the end of the insulin or no-insulin treatment (forty-eight hours post-transfection), total RNA is isolated from both the basal and insulin treated (1 nM) 96-well plates, and the amount of total RNA from each sample is determined using a Ribogreen assay (Molecular Probes, Eugene, Oreg.). Real-time PCR is performed on all the total RNA samples using primer/probe sets for three insulin responsive genes: PEPCK-c, IGFBP-1 and follistatin. Expression levels for each gene are normalized to total RNA, and values+standard deviation are expressed relative to the transfectant only untreated control (UTC) and negative control compounds.
(§3) Protocols for treatment of HepG2 cells and transfection of oligomeric compounds are as described in Example 18. Also as described in Example 18, forty-four hours post-transfection, the cells in the transfected wells were treated with either no insulin (“basal” Experiment 3 (below), for identification of insulin-mimetic compounds) or with 1 nM insulin (“insulin treated” Experiment 4 (below), for identification of insulin sensitizers) for four hours. At the same time, in both plates, cells in some of the un-transfected control wells are treated with 100 nM insulin to determine maximal insulin response. At the end of the insulin or no-insulin treatment (forty-eight hours post-transfection), total RNA is isolated from both the basal and insulin treated (1 nM) 96-well plates, and the amount of total RNA from each sample is determined using a Ribogreen assay (Molecular Probes, Eugene, Oreg.).

follistatin = test: Follistatin mRNA expression in HepG2 cells; type: cell-based, human; details: for Follistatin (% UTC): HepG2, 100 nM oligomeric compound; for Follistatin mRNA: HepG2 cells, four hours, UTC = 100
Experimental: as §1, §2, §3

IL-12 mRNA = IL-12 mRNA in LPS-activated primary murine macrophages; type: cell-based, mouse; details: for IL-12 mRNA expression, −IFN % UTC: 300 nM oligomeric compound and LPS, no IFN-gamma pretreatment, single experiment; for IL-12 mRNA expression, −IFN % UTC / IL-12 mRNA expression, +IFN % UTC: normalized to LPS-treated cells without oligomeric compound; for IL-12 mRNA expression, +IFN % UTC: 300 nM oligomeric compound, stimulation with IFN-gamma and LPS, average of 2 experiments; for IL-12 mRNA expression, % UTC: LPS, average of 3 treatments
[1] = Experiment 1, basal (no insulin)
[2] = Experiment 2, 1 nM insulin treated
[3] = Experiment 2, insulin treated: HepG2 cells transfected with oligomeric compound, 1 nM insulin for four hours, UTC + 1 nM insulin = 100

327878 (antisense e[5mC]*eT*eA*eG*eT*eG*eG*eT*e[5mC]*e[5mC]*eT*eA*eA*eA*e[5mC]*eA*eT*eT*eT*e[5mC]*eA*e[5mC]) [compound 327878]
IGFBP-1 (% UTC) (IGFBP-1; [1]): 162 % UTC | IGFBP-1 (% UTC) (IGFBP-1; [2]): 185 % UTC | Follistatin (% UTC) (follistatin; [1]): 124 % UTC | Follistatin (% UTC) (follistatin; [2]): 150 % UTC

327880 (antisense eA*e[5mC]*eA*eA*eA*eT*eT*e[5mC]*eG*eG*eT*eT*e[5mC]*eT*eA*e[5mC]*eA*eG*eG*eG*eT*eA) [compound 327880]
IGFBP-1 (% UTC) (IGFBP-1; [1]): 137 % UTC | IGFBP-1 (% UTC) (IGFBP-1; [2]): 136 % UTC | Follistatin (% UTC) (follistatin; [1]): 107 % UTC | Follistatin (% UTC) (follistatin; [2]): 149 % UTC

327885 (antisense eA*e[5mC]*eT*eA*e[5mC]*e[5mC]*eT*eG*e[5mC]*eA*e[5mC]*eT*eG*eT*eA*eA*eG*e[5mC]*eA*e[5mC]*eT*eT*eT*eG) [compound 327885]
IGFBP1 mRNA (IGFBP-1; [1]): 161 | Follistatin mRNA (follistatin; [1]): 74

327886 (antisense e[5mC]*eG*e[5mC]*eG*eT*eA*e[5mC]*e[5mC]*eA*eA*eA*eA*eG*eT*eA*eA*eT*eA*eA*eT*eG) [compound 327886]
IGFBP1 mRNA (IGFBP-1; [1]): 176 | Follistatin mRNA (follistatin; [1]): 82

327892 (antisense eA*e[5mC]*eT*eT*eT*e[5mC]*eG*eG*eT*eT*eA*eT*e[5mC]*eT*eA*eG*e[5mC]*eT*eT*eT*eA) [compound 327892]
IGFBP-1 (% UTC) (IGFBP-1; [1]): 108 % UTC | IGFBP-1 (% UTC) (IGFBP-1; [2]): 139 % UTC | Follistatin (% UTC) (follistatin; [1]): 91 % UTC | Follistatin (% UTC) (follistatin; [2]): 96 % UTC

327895 (antisense eA*e[5mC]*eA*eA*eA*e[5mC]*eA*e[5mC]*e[5mC]*eA*eT*eT*eG*eT*e[5mC]*eA*e[5mC]*eA*e[5mC]*eT*e[5mC]*e[5mC]*eA) [compound 327895]
IGFBP1 mRNA (IGFBP-1; [1]): 108 | Follistatin mRNA (follistatin; [1]): 83

327897 (antisense eA*e[5mC]*eA*eG*eG*e[5mC]*e[5mC]*eG*eG*eG*eA*e[5mC]*eA*eA*eG*eT*eG*e[5mC]*eA*eA*eT*eA) [compound 327897]
IGFBP1 mRNA expression (IGFBP-1; [3]): 243 | IGFBP1 mRNA (IGFBP-1; [1]): 163 | Follistatin mRNA expression (follistatin; [3]): 123 | Follistatin mRNA (follistatin; [1]): 129

327900 (antisense e[5mC]*eT*eG*e[5mC]*e[5mC]*eT*eG*eT*e[5mC]*eT*eG*eT*eG*e[5mC]*e[5mC]*eT*eG*e[5mC]*eT*eG*eT) [compound 327900]
IGFBP1 mRNA (IGFBP-1; [1]): 102 | Follistatin mRNA (follistatin; [1]): 111

327912 (antisense eA*eA*e[5mC]*eT*eA*eT*eA*e[5mC]*eA*eA*eT*e[5mC]*eT*eA*e[5mC]*eT*eA*e[5mC]*e[5mC]*eT*e[5mC]*eA) [compound 327912]
IL-12 mRNA expression, −IFN % UTC (IL-12 mRNA): 206 % UTC | IL-12 mRNA expression, +IFN % UTC (IL-12 mRNA): 39 % UTC

327917 (antisense eT*e[5mC]*eA*eA*e[5mC]*eA*eT*e[5mC]*eA*eG*eT*e[5mC]*eT*eG*eA*eT*eA*eA*eG*e[5mC]*eT*eA) [compound 327917]
IL-12 mRNA expression, −IFN % UTC (IL-12 mRNA): 225 % UTC | IL-12 mRNA expression, +IFN % UTC (IL-12 mRNA): 35 % UTC

327921 (antisense e[5mC]*eT*eT*e[5mC]*e[5mC]*eA*eG*eT*e[5mC]*eG*eG*eG*eG*eA*eT*eG*eT*eT*eT*eA*e[5mC]*eA) [compound 327921]
IL-12 mRNA expression, % UTC (IL-12 mRNA; 75 nM, +IFN): 14 % UTC | IL-12 mRNA expression, % UTC (IL-12 mRNA; 75 nM, −IFN): 109 % UTC | IL-12 mRNA expression, % UTC (IL-12 mRNA; 150 nM, +IFN): 7 % UTC | IL-12 mRNA expression, % UTC (IL-12 mRNA; 150 nM, −IFN): 88 % UTC | IL-12 mRNA expression, −IFN % UTC (IL-12 mRNA): 325 % UTC | IL-12 mRNA expression, +IFN % UTC (IL-12 mRNA): 24 % UTC | IL-12 mRNA expression, % UTC (IL-12 mRNA; 300 nM, +IFN): 5 % UTC | IL-12 mRNA expression, % UTC (IL-12 mRNA; 300 nM, −IFN): 67 % UTC | IL-12 mRNA expression, % UTC (IL-12 mRNA; 600 nM, +IFN): 5 % UTC | IL-12 mRNA expression, % UTC (IL-12 mRNA; 600 nM, −IFN): 53 % UTC

327927 (antisense eT*eG*eT*eA*eA*eA*e[5mC]*e[5mC]*eA*eT*eG*eA*eT*eG*eT*eG*e[5mC]*eT*eG*e[5mC]*eT*eA) [compound 327927]
IL-12 mRNA expression, −IFN % UTC (IL-12 mRNA): 164 % UTC | IL-12 mRNA expression, +IFN % UTC (IL-12 mRNA): 33 % UTC
